Measured values: US7384478B2, “Apparatus and process for preparing crystalline particles” (Glaxo Group Limited, priority 2002, dated 2008)
Marks after values point to notes of the source that are not given here. Blank lines part the entries; values can stand above or below the compound they belong to.

Assay: Particle sizing with the Malvern laser diffraction particle sizer
Format: physicochemical
Settings: for Malvern size data D10 / Malvern size data D50 / Malvern size data D90: crystalline fluticasone propionate particles, average of 2 results except values marked **
Method: The drug substance (fluticasone propionate, FP) (1 wt) was dissolved in acetone (15-20 vols, according to experiment) by heating to 56° C. and then allowed to cool to between 25 and 35° C. A first peristaltic pump was connected to the said FP/acetone solution and a second peristaltic pump was connected to a water reservoir wherein the water was in the temperature range of about 3-30° C. Prior to starting the pumps the mixing chamber was filled with a solution of acetone and water (the ratio of each being the same as the relative pumping rates from the two reservoirs). By doing this, the relative concentrations of the water to acetone remained constant throughout the crystallisation. The temperature of the mixing chamber was maintained in the range about −10 to +30° C. by passing tempered heat transfer fluid through the vessel jacket. The FP/acetone solution inlet and water inlet were arranged coaxially or in parallel (as shown in FIGS. 1a/1b/2a/2b) and the tip of the ultrasound probe was positioned so that it is just above the inlets. Stirring with the aid of a non-grinding magnetic stirrer bar or overhead stirrer was initiated as is the ultrasound at intensity 2-4 W/cm^2 (with respect to the tip face area of the probe). A comparison experiment with the ultrasound probe in place but zero power was performed. Re-crystallisations were carried out from various mixtures of acetone and water (by altering the flow rates of each) as dictated by the parameters set out in the experimental design. Finally the pumps were started simultaneously. A suspension of the crystals in the re-crystallisation mixture was allowed to exit via the overflow directly on to a filter bed. The slurry is isolated and washed with water and dried in vacuo between about 20 to 50° C.
Comparison experiments were performed using the apparatus with diametrically opposite input feeds described in WO 00/38811 in which save for the input feed geometry and the specific parameters given in the table below, and the vessel dimensions given below, other parameters Were similar to those used for the experiments using the present invention.
Samples were sized using the Malvern laser diffraction particle sizer and the results analysed using multi-dimensional model fitting software (such as Design Expert 5).

Structure (SMILES): CCC(=O)O[C@]1(C(=O)SCF)[C@H](C)C[C@H]2[C@@H]3C[C@H](F)C4=CC(=O)C=C[C@]4(C)[C@@]3(F)[C@@H](O)C[C@@]21C [Run 1, fluticasone propionate]
Malvern size data D10 (listed as 1): 0.60 micron
Malvern size data D50 (listed as 1): 2.25 micron
Malvern size data D90 (listed as 1): 6.29 micron

Structure (SMILES): CCC(=O)O[C@]1(C(=O)SCF)[C@H](C)C[C@H]2[C@@H]3C[C@H](F)C4=CC(=O)C=C[C@]4(C)[C@@]3(F)[C@@H](O)C[C@@]21C [Run 2, fluticasone propionate]
Malvern size data D10 (listed as 2): 0.52 micron
Malvern size data D50 (listed as 2): 2.08 micron
Malvern size data D90 (listed as 2): 5.10 micron

Structure (SMILES): CCC(=O)O[C@]1(C(=O)SCF)[C@H](C)C[C@H]2[C@@H]3C[C@H](F)C4=CC(=O)C=C[C@]4(C)[C@@]3(F)[C@@H](O)C[C@@]21C [Run 3, fluticasone propionate]
Malvern size data D10 (listed as 3): 0.47 micron
Malvern size data D50 (listed as 3): 1.78 micron
Malvern size data D90 (listed as 3): 4.39 micron

Structure (SMILES): CCC(=O)O[C@]1(C(=O)SCF)[C@H](C)C[C@H]2[C@@H]3C[C@H](F)C4=CC(=O)C=C[C@]4(C)[C@@]3(F)[C@@H](O)C[C@@]21C [Run 4, fluticasone propionate]
Malvern size data D10 (listed as 4): 0.43** micron
Malvern size data D50 (listed as 4): 1.51** micron
Malvern size data D90 (listed as 4): 3.75** micron
particle size distribution, comparison in words (versus micronised material or prior art configurations C and D): very good match

Next, values leading:

Malvern size data D10 (listed as 5): 0.86 micron
Malvern size data D50 (listed as 5): 2.98 micron
Malvern size data D90 (listed as 5): 6.92 micron
Structure (SMILES): CCC(=O)O[C@]1(C(=O)SCF)[C@H](C)C[C@H]2[C@@H]3C[C@H](F)C4=CC(=O)C=C[C@]4(C)[C@@]3(F)[C@@H](O)C[C@@]21C [Run 5, fluticasone propionate]

Malvern size data D10 (listed as 6): 0.53 micron
Malvern size data D50 (listed as 6): 2.06 micron
Malvern size data D90 (listed as 6): 4.93 micron
Structure (SMILES): CCC(=O)O[C@]1(C(=O)SCF)[C@H](C)C[C@H]2[C@@H]3C[C@H](F)C4=CC(=O)C=C[C@]4(C)[C@@]3(F)[C@@H](O)C[C@@]21C [Run 6, fluticasone propionate]

Malvern size data D10 (listed as 7): 1.15 micron
Malvern size data D50 (listed as 7): 4.19 micron
Malvern size data D90 (listed as 7): 10.00 micron
Structure (SMILES): CCC(=O)O[C@]1(C(=O)SCF)[C@H](C)C[C@H]2[C@@H]3C[C@H](F)C4=CC(=O)C=C[C@]4(C)[C@@]3(F)[C@@H](O)C[C@@]21C [Run 7, fluticasone propionate]

Malvern size data D10 (listed as 8): 1.88 micron
Malvern size data D50 (listed as 8): 5.13 micron
Malvern size data D90 (listed as 8): 11.86 micron
Structure (SMILES): CCC(=O)O[C@]1(C(=O)SCF)[C@H](C)C[C@H]2[C@@H]3C[C@H](F)C4=CC(=O)C=C[C@]4(C)[C@@]3(F)[C@@H](O)C[C@@]21C [Run 8, fluticasone propionate]

Malvern size data D10: 0.60 micron
Malvern size data D50: 1.62 micron
Malvern size data D90: 3.20 micron
Structure (SMILES): CCC(=O)O[C@]1(C(=O)SCF)[C@H](C)C[C@H]2[C@@H]3C[C@H](F)C4=CC(=O)C=C[C@]4(C)[C@@]3(F)[C@@H](O)C[C@@]21C [standard micronised FP, fluticasone propionate]
